Where a name gives a salt, the structure may show the parent alone.
How the values were obtained:
[1] = test system: Candida albicans(KCTC 1940), Aspergillus niger (ATCC 9642) and Saccharomyces cerevisiae; test: Relative antifungal activity by agar dilution method (vs Miconazole); format: cell-based;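 also: scores 5 to 7 mean a lower fungicidal concentration than Miconazole so higher is more potent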
Excerpt: Novel compounds represented by the above chemical formula (I), and the relative activities in accordance with the agar dilution method in Sabouraud dextrose agar media, Czapek agar media and Yeast Extract-Peptone-Dextrose agar media for Candida albicans(KCTC 1940), Aspergillus niger (ATCC 9642) and Saccharomyces cerevisiae are described respectively in following Table 1.

[2] = test system: various kinds of Candida; test: MIC (Minimal Inhibitory Concentration) data; format: cell-based; settings: unit assumed
[3] = agar dilution method, fungicidal concentration relative to control drug Miconazole (=4)
[4] = antifungal activity relative to Miconazole, agar dilution

SMILES | melting point [°C] | Relative Activity [1, 3] | also measured
CCCCCC1=[N+](Cc2c(F)cccc2F)CCc2cc(OC)c(OC)cc21.[Cl-] [Compound No. 57, 1-n-pentyl-2-(2,6-difluorophenyl)methyl-3,4-dihydro-6,7-dimethoxyisoquinolinium chloride] | 196 | 6 | 
CCCCCCCCCCCC1=[N+](Cc2ccc(C(C)(C)C)cc2)CCc2cc(OC)c(OC)cc21.[Cl-] [Compound No. 127, 1-undecyl-2-(4-t-butylphenyl)methyl-3,4-dihydro-6,7-dimethoxy isoquinolinium chloride] | 85 | 1 | MIC ([2]; C. albicans ATCC 11651): 0.78 µg/mL; MIC ([2]; C. albicans ATCC 28838): 1.56 µg/mL; MIC ([2]; C. albicans IFO 1385): 0.78 µg/mL; MIC ([2]; C. albicans OY-003): 1.56 µg/mL; MIC ([2]; C. albicans OY-019): 0.78 µg/mL; MIC ([2]; C. albicans U.K): 1.56 µg/mL; MIC ([2]; C. glabrata): 1.56 µg/mL; MIC ([2]; C. glulliermondi): 1.56 µg/mL; MIC ([2]; C. krusei (KCTC7273)): 1.56 µg/mL; MIC ([2]; C. parapsilosis): 1.56 µg/mL
COc1cc2c(cc1OC)C(c1cc(F)cc(F)c1)=[N+](Cc1ccccc1F)CC2.[Cl-] [Compound No. 18, 1-(3,5-difluorophenyl)-2-(2-fluorophenyl)methyl-3,4-dihydro-6,7-dimethoxyisoquinolinium chloride] | 118 | 6 | 
COc1cc2cc[n+](Cc3ccc(C(C)(C)C)cc3)c(C)c2cc1OC.[Cl-] [Compound No. 143, 1-methyl-2-(4-t-butylphenyl)methyl-6,7-dimethoxyisoquinolinium chloride] | 350 |  | Relative Activity [1, 4]: 6
COc1cc2c(cc1OC)C(C)=[N+](Cc1ccc(F)c(F)c1)CC2.[Cl-] [Compound No. 39, 1-methyl-2-(3,4-difluorophenyl)methyl-3,4-dihydro-6,7-dimethoxyisoquinolinium chloride] | 88 | 6 | 
COc1cc2c(cc1OC)C(Cc1ccc(Cl)cc1Cl)=[N+](Cc1ccccc1F)CC2.[Cl-] [Compound No. 25, 1-(2,4-dichlorophenyl)methyl-2-(2-fluorophenyl)methyl-3,4-dihydro-6,7-dimethoxyisoquinolinium chloride] | 182 | 6 | 
CCCCCCC1=[N+](Cc2ccc(C(C)(C)C)cc2)CCc2cc(OC)c(OC)cc21.[Cl-] [Compound No. 126, 1-hexyl-2-(4-t-butylphenyl)methyl-3,4-dihydro-6,7-dimethoxy isoquinolinium chloride] | 34 | 4 | 
COc1ccc(C[N+]2=C(CCc3ccc(C(C)(C)C)cc3)c3cc(OC)c(OC)cc3CC2)cc1OC (as salt: chloride) [Compound No. 125, 1-(2-(4-t-butylphenyl))ethyl-2-(3,4-dimethoxyphenyl)methyl-3,4-dihydro-6,7-dimethoxyisoquinolinium chloride] | 100 |  | 
COc1cc2c(cc1OC)C(CCc1ccc(C(C)(C)C)cc1)=[N+](Cc1cccc(OC)c1OCc1ccc(C(F)(F)F)cc1)CC2 (as salt: chloride) [Compound No. 132, 1-(2-(4-t-butylphenyl))ethyl-2-(2-(4-trifluoromethylbenzyloxy)-3-methoxyphenyl)methyl-3,4-dihydro-6,7-dimethoxy isoquinolinium chloride] | 60 |  | 
COc1cc2c(cc1OC)C(c1ccc(C(C)(C)C)cc1)=[N+](Cc1ccccc1Cl)CC2.[Cl-] [Compound No. 55, 1-(4-t-butylphenyl)-2-(2-chlorophenyl)methyl-3,4-dihydro-6,7-dimethoxyisoquinolinium chloride] | 117 | 6 | 
CCCc1c2cc(OC)c(OC)cc2cc[n+]1Cc1ccc(C(C)(C)C)cc1.[Cl-] [Compound No. 144, 1-propyl-2-(4-t-butylphenyl)methyl-6,7-dimethoxyisoquinolinium chloride] | 79 |  | Relative Activity [1, 4]: 6
COc1cc2c(cc1OC)C(c1ccc(C(C)(C)C)cc1)=[N+](Cc1ccc(F)c(F)c1)CC2.[Cl-] [Compound No. 48, 1-(4-t-butylphenyl)-2-(3,4-difluorophenyl)methyl-3,4-dihydro-6,7-dimethoxyisoquinolinium chloride] | 97 | 6 | 
CC(C)C1=[N+](Cc2ccccc2F)CCc2cc3c(cc21)OCO3.[Cl-] | 114 |  | 
CCCCCCCCCCCCCCCc1c2cc(OC)c(OC)cc2cc[n+]1Cc1ccc(C(C)(C)C)cc1.[Cl-] [Compound No. 147, 1-pentadecyl-2-(4-t-butylphenyl)methyl-6,7-dimethoxyisoquinolinium chloride] | 120 |  | Relative Activity [1, 4]: 1
COc1cc2c(cc1OC)C(CCc1ccc(C(C)(C)C)cc1)=[N+](Cc1cccc(OC)c1OCc1c(F)c(F)c(C(F)(F)F)c(F)c1F)CC2 (as salt: chloride) [Compound No. 135, 1-(2-(4-t-butylphenyl))ethyl-2-(2-(2,3,5,6-tetrafluoro-4-trifluoromethylbenzyloxy)-3-methoxyphenyl)methyl-3,4-dihydro-6,7-dimethoxy isoquinolinium chloride] | 140 |  | 
CC(C)(C)c1ccc(C2=[N+](Cc3ccccc3F)CCc3cc4c(cc32)OCO4)cc1.[Cl-] | 148 |  | 
CCCCCCc1c2cc(OC)c(OC)cc2cc[n+]1Cc1ccc(C(C)(C)C)cc1.[Cl-] [Compound No. 145, 1-hexyl-2-(4-t-butylphenyl)methyl-6,7-dimethoxyisoquinolinium chloride] | 105 |  | Relative Activity [1, 4]: 4
COc1cc2cc[n+](Cc3c(F)cccc3Cl)c(C)c2cc1OC.[Cl-] [Compound No. 140, 1-methyl-2-(2-chloro-6-fluorophenyl)methyl-6,7-dimethoxyisoquinolinium chloride] | 96 |  | Relative Activity [1, 4]: 6

Further lines, with some results ahead:

melting point [°C] | SMILES | Relative Activity [1, 3] | also measured
104 | CCCCCCCCCCCCCCCC1=[N+](Cc2c(F)cccc2F)CCc2cc(OC)c(OC)cc21.[Cl-] [Compound No. 60, 1-n-pentadecyl-2-(2,6-difluorophenyl)methyl-3,4-dihydro-6,7-dimethoxyisoquinolinium chloride] | 1 | 
79 | COc1cc2c(cc1OC)C(c1ccccc1F)=[N+](Cc1c(F)cccc1F)CC2.[Cl-] [Compound No. 62, 1-(2-fluorophenyl)-2-(2,6-difluorophenyl)methyl-3,4-dihydro-6,7-dimethoxyisoquinolinium chloride] | 6 | 
105 | COc1cc2c(cc1OC)C(C)=[N+](Cc1cccc(OC)c1OCc1ccc(C(C)(C)C)cc1)CC2.[Cl-] [Compound No. 138, 1-methyl-2-(2-(4-t-butylbenzyloxy)-3-methoxyphenyl)methyl-3,4-dihydro-6,7-dimethoxy isoquinolinium chloride] | 6 | 
78 | CCCc1c2cc(OC)c(OC)cc2cc[n+]1Cc1c(F)cccc1Cl.[Cl-] [Compound No. 139, 1-propyl-2-(2-chloro-6-fluorophenyl)methyl-6,7-dimethoxy-isoquinolinium chloride] |  | Relative Activity [1, 4]: 6
112 | CCCCCCCC1=[N+](Cc2ccccc2F)CCc2cc(OC)c(OC)cc21.[Cl-] [Compound No. 11, 1-n-heptyl-2-(2-fluorophenyl)methyl-3,4-dihydro-6,7-dimethoxyisoquinolinium chloride] | 4 | 
94 | CCCCCCCC1=[N+](Cc2ccccc2F)CCc2cc3c(cc21)OCO3.[Cl-] |  | 
125 | COc1cc2c(cc1OC)C(c1ccc(C(C)(C)C)cc1)=[N+](Cc1ccccc1F)CC2.[Cl-] [Compound No. 22, 1-(4-t-butylphenyl)-2-(2-fluorophenyl)methyl-3,4-dihydro-6,7-dimethoxyisoquinolinium chloride] | 6 | 
166 | CCCCCCCCCCCCCCCC1=[N+](Cc2ccc(C(C)(C)C)cc2)CCc2cc(OC)c(OC)cc21.[Cl-] [Compound No. 128, 1-pentadecyl-2-(4-t-butylphenyl)methyl-3,4-dihydro-6,7-dimethoxy isoquinolinium chloride] | 1 | 
102 | COc1ccc2c(c1)CC[N+](Cc1ccccc1F)=C2C(C)C.[Cl-] [Compound No. 83, 1-i-propyl-2-(2-fluorophenyl)methyl-3,4-dihydro-6-methoxyisoquinolinium chloride] | 6 | 
88 | CC1=[N+](Cc2ccc(F)c(F)c2)CCc2cc3c(cc21)OCO3.[Cl-] [Compound No. 111, 1-methyl-2-(3,4-difluorophenyl)methyl-3,4-dihydro-6,7-methylenedioxyisoquinolinium chloride] | 6 | 

— patent publication US20090221829A1 (priority 2005, published 2009)
